This is an account of results in patent US9376436B2, “2-(pyridin-2yl)-1, 7-diaza-spiro [4.4] nonane-6-one compound as voltage-gated sodium channels modulators” (CONVERGENCE PHARMACEUTICALS LIMITED, priority 2011, dated 2016).

In the assay the target is T1, hNaV1.7 (Homo sapiens, UniProt Q15858).
T1 construct: expressed in transfected cells; host or cells: HEK293
Briefly: QPatch NaV1.7 assay (whole-cell patch clamp, QPatch16x). Particulars: HEK293-hNaV1.7 cells. Type of assay: cell-based. The procedure:
The compounds of the invention were tested in a QPatch NaV1.7 assay.
HEK293-hNaV1.7 cells were grown in DMEM-F12+10% FBS culture media at 37° C. At a confluency of 50-70% cells were dissociated from culture flasks & triturated to ensure unicellular cell suspension; cell density was measured & adjusted to 2-3×10^6 cells/ml. Recordings were obtained using QPatch16x. The external solution was (in mM): NaCl, 128; KCl, 5; MgCl2, 2; CaCl2, 2; Glucose, 30; HEPES, 15; pH 7.3, 305-315 mOsm. Following seal formation and whole-cell access using internal solution (containing in mM: CsF, 135; EGTA/CsOH, 1/5; HEPES 10; NaCl, 10; pH 7.3, 310-320 mOsM), voltage pulse protocols were applied. Initially a steady state inactivation voltage protocol was used to determine the half-maximal voltage for steady state inactivation (V1/2 SSI). Two holding voltages were used to determine test drug inhibition: −90 mV, where most of the channels are in a closed state; and V1/2 SSI, where half of the channels are inactivated. Currents were elicited […] by stepping to a membrane potential of 0 mV for 20 ms. Four-point cumulative concentration responses were derived by determining the peak current amplitude at each concentration of test drug over 120 second application. Curves were fitted with the Hill equation yielding pIC50 values at −90 mV and V1/2 SSI holding potentials.
(In general: In patch-clamp work, channel activity is measured electrically.)

[1] abbreviates: holding voltage V1/2 SSI (half of channels inactivated), read-out: QP Nav1.7 SSI vhalf pIC50 (converted).
[2] abbreviates: holding voltage −90 mV (most channels closed), read-out: QP Nav1.7 −90 mV pIC50 (converted).

Counter-ions that a name gives are not always drawn. Like-named read-outs stand apart in the source and are kept apart here.

T1 sequence (Q15858 whole entry): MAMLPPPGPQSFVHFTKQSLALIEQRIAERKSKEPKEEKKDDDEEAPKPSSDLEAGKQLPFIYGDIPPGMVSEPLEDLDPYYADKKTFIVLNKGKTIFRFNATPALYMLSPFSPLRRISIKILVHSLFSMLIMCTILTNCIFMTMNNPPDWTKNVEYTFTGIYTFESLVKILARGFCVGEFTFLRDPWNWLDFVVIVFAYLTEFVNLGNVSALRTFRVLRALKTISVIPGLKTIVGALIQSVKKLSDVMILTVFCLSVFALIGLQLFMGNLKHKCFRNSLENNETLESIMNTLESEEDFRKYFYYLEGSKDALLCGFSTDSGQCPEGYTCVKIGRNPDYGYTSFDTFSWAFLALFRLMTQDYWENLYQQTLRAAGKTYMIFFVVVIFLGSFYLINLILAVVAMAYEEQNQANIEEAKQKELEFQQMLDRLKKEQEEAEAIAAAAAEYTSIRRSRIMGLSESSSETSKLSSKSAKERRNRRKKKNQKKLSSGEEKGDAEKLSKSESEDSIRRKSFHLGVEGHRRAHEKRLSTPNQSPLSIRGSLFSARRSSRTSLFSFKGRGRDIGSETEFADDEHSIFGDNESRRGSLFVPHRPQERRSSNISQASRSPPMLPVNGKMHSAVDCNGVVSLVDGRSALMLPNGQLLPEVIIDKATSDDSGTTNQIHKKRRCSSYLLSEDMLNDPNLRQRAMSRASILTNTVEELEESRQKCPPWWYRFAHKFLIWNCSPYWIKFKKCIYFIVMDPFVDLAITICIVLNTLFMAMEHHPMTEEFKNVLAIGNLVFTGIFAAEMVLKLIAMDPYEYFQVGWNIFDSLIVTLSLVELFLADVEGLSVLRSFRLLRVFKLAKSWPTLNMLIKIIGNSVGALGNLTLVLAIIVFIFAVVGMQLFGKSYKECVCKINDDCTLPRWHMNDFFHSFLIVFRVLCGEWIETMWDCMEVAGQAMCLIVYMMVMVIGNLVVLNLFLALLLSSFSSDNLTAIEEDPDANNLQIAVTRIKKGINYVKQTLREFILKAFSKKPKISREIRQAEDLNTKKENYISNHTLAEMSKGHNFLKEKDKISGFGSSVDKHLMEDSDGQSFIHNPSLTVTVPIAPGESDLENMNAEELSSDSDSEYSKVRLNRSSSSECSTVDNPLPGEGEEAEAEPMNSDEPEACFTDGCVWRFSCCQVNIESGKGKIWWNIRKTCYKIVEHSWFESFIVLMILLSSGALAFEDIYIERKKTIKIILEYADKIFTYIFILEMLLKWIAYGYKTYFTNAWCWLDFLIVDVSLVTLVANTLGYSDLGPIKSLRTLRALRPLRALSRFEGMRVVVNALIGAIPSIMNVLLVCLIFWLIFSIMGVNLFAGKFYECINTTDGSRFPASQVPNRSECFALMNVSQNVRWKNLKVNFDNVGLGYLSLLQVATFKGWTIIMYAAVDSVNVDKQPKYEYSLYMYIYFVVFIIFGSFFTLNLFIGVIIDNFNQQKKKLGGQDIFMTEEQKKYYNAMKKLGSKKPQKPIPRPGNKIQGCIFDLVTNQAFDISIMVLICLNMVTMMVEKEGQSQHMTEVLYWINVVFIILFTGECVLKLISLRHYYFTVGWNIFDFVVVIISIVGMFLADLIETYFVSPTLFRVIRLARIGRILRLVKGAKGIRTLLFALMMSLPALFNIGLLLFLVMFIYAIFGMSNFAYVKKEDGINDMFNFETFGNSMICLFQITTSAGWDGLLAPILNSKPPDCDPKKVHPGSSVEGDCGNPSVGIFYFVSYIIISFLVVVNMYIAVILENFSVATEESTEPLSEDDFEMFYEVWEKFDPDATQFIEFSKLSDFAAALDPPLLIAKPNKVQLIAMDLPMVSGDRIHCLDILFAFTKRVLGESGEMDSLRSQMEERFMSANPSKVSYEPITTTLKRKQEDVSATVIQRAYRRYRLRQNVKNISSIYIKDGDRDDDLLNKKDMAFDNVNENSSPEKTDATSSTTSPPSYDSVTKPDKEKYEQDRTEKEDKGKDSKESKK

With `Cc1cc(-c2cc(C(F)(F)F)ccc2C#N)cc([C@H]2CC[C@]3(CCN(C)C3=O)N2)n1` [Example 22, 2-[2-Methyl-6-[(2R,5R)-7-methyl-6-oxo-1,7-diazaspiro[4.4]-nonan-2-yl]-4-pyridyl]-4-(trifluoromethyl)-benzonitrile hydrochloride], the IC50 is 158 µM under setting [1] and 1000 µM under setting [2].

Regarding `Cc1cc(-c2cc(C(F)(F)F)ccc2C#N)cc([C@H]2CC[C@@]3(CCN(C)C3=O)N2)n1` [Example 23, 2-[2-Methyl-6-[(2R,5S)-7-methyl-6-oxo-1,7-diazaspiro[4.4]nonan-2-yl]-4-pyridyl]-4-(trifluoromethyl)benzonitrile hydrochloride], the IC50 under setting [1] was 79.4 µM and the IC50 under setting [2] was 631 µM. In the same order, the values of `Cc1cc(-c2cc(C(F)(F)F)ccc2C(N)=O)cc([C@H]2CC[C@@]3(CCN(C)C3=O)N2)n1` [Example 24, 2-[2-Methyl-6-[(2R,5S)-7-methyl-6-oxo-1,7-diazaspiro[4.4]nonan-2-yl]-4-pyridyl]-4-(trifluoromethyl)benzamide hydrochloride] are 398 µM and 1000 µM.

`Cc1cc(-c2cc(C(F)(F)F)ccc2C(N)=O)cc([C@@H]2CC[C@@]3(CCN(C)C3=O)N2)n1` [Example 25, 2-[2-Methyl-6-[(2S,5S)-7-methyl-6-oxo-1,7-diazaspiro[4.4]nonan-2-yl]-4-pyridyl]-4-(trifluoromethyl)benzamide hydrochloride]: under setting [1], the IC50 was 1580 µM.

In the case of `Cc1cc(-c2cc(C(F)(F)F)ccc2C(N)=O)cc([C@H]2CC[C@]3(CCN(C)C3=O)N2)n1` [Example 26, 2-[2-Methyl-6-[(2R,5R)-7-methyl-6-oxo-1,7-diazaspiro[4.4]nonan-2-yl]-4-pyridyl]-4-(trifluoromethyl)benzamide hydrochloride], the IC50 under setting [1] is 794 µM.

For `Cc1cc(-c2cc(C(F)(F)F)ccc2C(N)=O)cc([C@@H]2CC[C@]3(CCN(C)C3=O)N2)n1` [Example 27, 2-[2-Methyl-6-[(2S,5R)-7-methyl-6-oxo-1,7-diazaspiro[4.4]nonan-2-yl]-4-pyridyl]-4-(trifluoromethyl)benzamide hydrochloride], the IC50 under setting [1] was 39800 µM. Consider `Cc1cc(-c2ccc(C(F)(F)F)cc2)cc([C@H]2CC[C@@]3(CCN(C)C3=O)N2)n1` [Example 28, (2R,5S)-7-Methyl-2-[6-methyl-4-[4-(trifluoromethyl)phenyl]-2-pyridyl]-1,7-diazaspiro[4.4]nonan-6-one hydrochloride], for which the IC50 was 5.01 µM under setting [1] and 31.6 µM under setting [2].

For the molecule `Cc1cc(-c2ccc(C(F)(F)F)cc2)cc([C@@H]2CC[C@@]3(CCN(C)C3=O)N2)n1` [Example 29, (2S,5S)-7-Methyl-2-[6-methyl-4-[4-(trifluoromethyl)phenyl]-2-pyridyl]-1,7-diazaspiro[4.4]nonan-6-one hydrochloride], the IC50 was 20 µM under setting [1] and 126 µM under setting [2]. In the same order, the values of `Cc1cc(-c2ccc(C(F)(F)F)cc2)cc([C@@H]2CC[C@]3(CCN(C)C3=O)N2)n1` [Example 30, (2S,5R)-7-Methyl-2-[6-methyl-4-[4-(trifluoromethyl)phenyl]-2-pyridyl]-1,7-diazaspiro[4.4]nonan-6-one hydrochloride] are 5.01 µM and 39.8 µM.

As for `Cc1cc(-c2ccc(C(F)(F)F)cc2)cc([C@H]2CC[C@]3(CCN(C)C3=O)N2)n1` [Example 31, (2R,5R)-7-Methyl-2-[6-methyl-4-[4-(trifluoromethyl)phenyl]-2-pyridyl]-1,7-diazaspiro[4.4]nonan-6-one hydrochloride], the IC50 under setting [1] is 20 µM and the IC50 under setting [2] is 79.4 µM.

As for `CN1CC[C@@]2(CC[C@H](c3cc(-c4ccccc4F)ccn3)N2)C1=O` [Example 32, (2R,5S)-2-[4-(2-Fluoro-phenyl)-pyridin-2-yl]-7-methyl-1,7-diaza-spiro[4.4]nonan-6-one hydrochloride], the IC50 is 39.8 µM under setting [1] and 251 µM under setting [2]. For the molecule `CN1CC[C@@]2(CC[C@@H](c3cc(-c4ccccc4F)ccn3)N2)C1=O` [Example 33, (2S,5S)-2-[4-(2-Fluoro-phenyl)-pyridin-2-yl]-7-methyl-1,7-diaza-spiro[4.4]nonan-6-one hydrochloride], the IC50 was 39.8 µM under setting [1] and 126 µM under setting [2]. In the same order, the values of `CN1CC[C@]2(CC[C@@H](c3cc(-c4ccccc4F)ccn3)N2)C1=O` [Example 34, (2S,5R)-2-[4-(2-Fluoro-phenyl)-pyridin-2-yl]-7-methyl-1,7-diaza-spiro[4.4]nonan-6-one hydrochloride] are 158 µM and 251 µM. In the same order, the values of `CN1CC[C@]2(CC[C@H](c3cc(-c4ccccc4F)ccn3)N2)C1=O` [Example 35, (2R,5R)-2-[4-(2-Fluoro-phenyl)-pyridin-2-yl]-7-methyl-1,7-diaza-spiro[4.4]nonan-6-one hydrochloride] are 100 µM and 398 µM. In the same order, the values of `O=C1NCC[C@@]12CC[C@@H](c1cc(-c3ccc(C(F)(F)F)cc3)ccn1)N2` [Example 36, (2S,5S)-2-[4-[4-(Trifluoromethyl)phenyl]-2-pyridyl]-1,7-diazaspiro[4.4]nonan-6-one hydrochloride] are 0.794 µM and 20 µM. Regarding `O=C1NCC[C@@]12CC[C@H](c1cc(-c3ccc(C(F)(F)F)cc3)ccn1)N2` [Example 37, (2R,5S)-2-[4-[4-(Trifluoromethyl)phenyl]-2-pyridyl]-1,7-diazaspiro[4.4]nonan-6-one hydrochloride], the IC50 runs as follows: under setting [1], 0.794 µM; under setting [2], 25.1 µM.

Turning to `O=C1NCC[C@@]12CC[C@@H](c1cc(-c3ccc(C(F)(F)F)cc3F)ccn1)N2` [Example 38, (2S,5S)-2-[4-[2-Fluoro-4-(trifluoro-methyl)phenyl]-2-pyridyl]-1,7-diazaspiro[4.4]nonan-6-one hydrochloride], the IC50 under setting [1] was 7.94 µM and the IC50 under setting [2] was 63.1 µM.

With `O=C1NCC[C@@]12CC[C@H](c1cc(-c3ccc(C(F)(F)F)cc3F)ccn1)N2` [Example 39, (2R,5S)-2-[4-[2-Fluoro-4-(trifluoro-methyl)phenyl]-2-pyridyl]-1,7-diazaspiro[4.4]nonan-6-one hydrochloride], the IC50 under setting [1] is 20 µM and the IC50 under setting [2] was 79.4 µM.

In the case of `Cc1cnc([C@@H]2CC[C@@]3(CCN(C)C3=O)N2)cc1-c1ccc(C(F)(F)F)cc1` [Example 40, (2S,5S)-7-Methyl-2-[5-methyl-4-[4-(trifluoromethyl)phenyl]-2-pyridyl]-1,7-diazaspiro[4.4]nonan-6-one hydrochloride], the IC50 was 1.58 µM under setting [1] and 50.1 µM under setting [2]. Consider `Cc1cnc([C@H]2CC[C@@]3(CCN(C)C3=O)N2)cc1-c1ccc(C(F)(F)F)cc1` [Example 41, (2R,5S)-7-Methyl-2-[5-methyl-4-[4-(trifluoromethyl)phenyl]-2-pyridyl]-1,7-diazaspiro[4.4]nonan-6-one hydrochloride], for which the IC50 is 2 µM under setting [1] and 25.1 µM under setting [2]. In the same order, the values of `Cc1cnc([C@H]2CC[C@]3(CCN(C)C3=O)N2)cc1-c1ccc(C(F)(F)F)cc1` [Example 42, (2R,5R)-7-Methyl-2-[5-methyl-4-[4-(trifluoromethyl)phenyl]-2-pyridyl]-1,7-diazaspiro[4.4]nonan-6-one hydrochloride] are 2 µM and 25.1 µM. In the same order, the values of `Cc1cnc([C@@H]2CC[C@]3(CCN(C)C3=O)N2)cc1-c1ccc(C(F)(F)F)cc1` [Example 43, (2S,5R)-7-Methyl-2-[5-methyl-4-[4-(trifluoromethyl)phenyl]-2-pyridyl]-1,7-diazaspiro[4.4]nonan-6-one hydrochloride] are 3.16 µM and 39.8 µM.

Turning to `CC1(C)C[C@@]2(CC[C@@H](c3cc(-c4ccc(C(F)(F)F)cc4)ccn3)N2)C(=O)N1` [Example 44, (2S,5S)-8,8-Dimethyl-2-[4-[4-(trifluoromethyl)phenyl]-2-pyridyl]-1,7-diazaspiro[4.4]nonan-6-one hydrochloride], the IC50 is 10 µM under setting [1] and 50.1 µM under setting [2].

As for `CC1(C)C[C@@]2(CC[C@H](c3cc(-c4ccc(C(F)(F)F)cc4)ccn3)N2)C(=O)N1` [Example 45, (2R,5S)-8,8-Dimethyl-2-[4-[4-(trifluoromethyl)phenyl]-2-pyridyl]-1,7-diazaspiro[4.4]nonan-6-one hydrochloride], the IC50 was 3.16 µM under setting [1] and 39.8 µM under setting [2]. Turning to `CC1(C)C[C@]2(CC[C@H](c3cc(-c4ccc(C(F)(F)F)cc4)ccn3)N2)C(=O)N1` [Example 46, (2R,5R)-8,8-Dimethyl-2-[4-[4-(trifluoromethyl)phenyl]-2-pyridyl]-1,7-diazaspiro[4.4]nonan-6-one hydrochloride], the IC50 under setting [1] was 0.794 µM and the IC50 under setting [2] is 10 µM.

For the molecule `CC1(C)C[C@]2(CC[C@@H](c3cc(-c4ccc(C(F)(F)F)cc4)ccn3)N2)C(=O)N1` [Example 47, (2S,5R)-8,8-Dimethyl-2-[4-[4-(trifluoromethyl)phenyl]-2-pyridyl]-1,7-diazaspiro[4.4]nonan-6-one hydrochloride], the IC50 by setting is: under setting [1], 12.6 µM; under setting [2], 31.6 µM.
